In US8399208B2, “Method and kit for the measurement of neutrophil cell activation” (Universite de Liege, priority 2004, dated 2013):

Key:
equine MPO = assay: MPO activity by SIEFED (specific immunological extraction followed by enzymatic detection); assay type: biochemical, horse; conditions: for Effect on MPO activity (in words): SIEFED, polyphenol incubated with MPO, then capture, washing, enzymatic detection
Description: FIG. 17 represents the inhibitory effect of curcumin on MPO activity. Concentration of MPO used: 9 ng/ml. The incubation time of curcumin with MPO before assay by SIEFED was 30 min. (The most concentrated curcumin solution was prepared in ethanol (175 mM) and dilutions of this concentrated solution were performed with PBS buffer).
As for the ELISA test, the primary antibody, that captures MPO, is rabbit IgG (3 μg/ml). Standard MPO or unknown sample is incubated 2 h at 37° C. After washing, the peroxidase activity of MPO is detected by adding 100 μl of a 10 μM H2O2 solution and 40 μM of Amplex® Red (10-acetyl-3,7-dihydroxyphenoxazine; Molecular Probes) in phosphate buffer (50 mM, pH 7.5). After incubation in the darkness (30 min, 37° C.), the fluorescence is read at 590 nm with a Fluoroskan Ascent apparatus (Labsystems). The volumes of the primary antibody and the sample put in the wells, are 200 μl. Controls (blank) and dilutions of the samples are established with dilution buffer.
(§1) Neutrophils isolated from citrated blood of healthy horses were counted, suspended in phosphate buffer saline (PBS) at pH 7.4 and incubated 10 min at 37° C. with curcumin or THC at the final concentration of 10^−4, 10^−5 or 10^−6 M. After incubation and centrifugation (1000×g, 10 min), the neutrophils were resuspended in PBS and either activated 30 min with 8×10^−7 M phorbol myristate acetate (PMA), with a simultaneous monitoring of the chemiluminescent response in presence of lucigenin (5×10^-8 M), or activated in the same conditions followed by centrifugation and MPO measurement in the supernatant. MPO, marker of neutrophil degranulation, was measured by a specific ELISA assay raised against equine MPO. The effect of polyphenols on MPO activity was tested by SIEFED (“Specific Immunological Extraction Followed by Enzymatic Detection”) method that allows the study of drug interaction with the enzyme without reaction medium interferences.
The SIEFED was applied to study the effects of two natural polyphenols (curcumin and resveratrol) on MPO activity.

[1] = test system: activated equine neutrophils; assay: MPO release by PMA-activated neutrophils, MPO measured by ELISA in the supernatant; assay type: cell-based, horse; conditions: for Inhibitory percentage, MPO assay by ELISA in the supernatant after neutrophils activation with PMA (MPO release): drug concentration 10^-5 M
Description: FIG. 16 represents the inhibitory effect of curcumin on MPO release by neutrophils incubated in PBS buffer with or without stimulation with phorbol myristate acetate (PMA) (Curcumin (Curcu) was dissolved in ethanol. MPO was measured by ELISA in the supernatant of activated neutrophils).
The ELISA developed for MPO (1) measurement is further referred to as a MYELO-ELISA. Rabbit IgG, the primary antibody (2), is immobilized (coated) in excess (3 μg/ml) onto microtitration wells (3) (Cliniplate EB, Labsystem). Standard or test antigen (equine MPO (1)) is incubated overnight with the primary antibody (2) at 4° C. After washing (0.9% NaCl solution containing 0.1% tween 20), the immobilized antibody-antigen complex is incubated (2 h, 37° C.) with an excess (5 μg/ml) of guinea pig IgG, the secondary antibody (4). After washing, a third antibody (5) produced against guinea pig IgG is added. This third IgG (5) (goat IgG) is labelled with alkaline phosphatase (6) and recognizes the “sandwich” complex “primary antibody-MPO-secondary antibody”. After washing, phosphatase activity is detected by incubation (30 min, 37° C., in the darkness) with a paranitrophenyl phosphate solution (phosphatase substrate, Sigma). The reaction is stopped with NaOH and the absorbance (405 nm) is measured with a Multiscan Ascent apparatus (Labsystem) (7). All the volumes added into the wells comprise 100 μl, except for washing (300 μl) and for the substrate solution (200 μl). Controls (blank) and dilutions of the standard MPO and samples were established with dilution buffer [PBS (20 mM phosphate, 137 mM NaCl and 2.7 mM KCl pH 7.4) to which 5 g/L bovine serum albumin and 0.1% tween 20 was added]. The same ELISA technique was developed also for monoclonal antibodies as primary antibody.
as §1

[2] = test system: activated equine neutrophils; assay: Chemiluminescence response (lucigenin) of PMA-activated equine neutrophils; assay type: cell-based, horse; conditions: for Inhibition percentage on chemiluminescence response of activated neutrophils: 10^-5 M, neutrophils activated with 8×10^-7 M PMA, lucigenin
Description: as §1

COc1cc(/C=C/C(=O)CC(=O)/C=C/c2ccc(O)c(OC)c2)ccc1O [Curcumin]
Effect on MPO activity (in words) (equine MPO): dose dependent inhibitory effects | Effect on MPO activity (in words) (equine MPO; listed as curcumin): direct dose dependent inhibitory effect | Inhibitory percentage, MPO activity (SIEFED) (equine MPO; drug concentration 10^-4 M): 96.2% | Inhibitory percentage, MPO activity (SIEFED) (equine MPO; drug concentration 10^-5 M): 60.4% | Inhibitory percentage, MPO activity (SIEFED) (equine MPO; drug concentration 10^-5 M, listed as curcumin): 60% | Inhibitory percentage, MPO activity (SIEFED) (equine MPO; drug concentration 10^-6 M): 21.1% | Effect on the MPO release by activated neutrophils (in words) ([1]; 10^-4, 10^-5 or 10^-6 M): dose dependent inhibitory effects | Inhibitory percentage, MPO assay by ELISA in the supernatant after neutrophils activation with PMA ([1]; drug concentration 10^-4 M): 83.5% | Inhibitory percentage, MPO assay by ELISA in the supernatant after neutrophils activation with PMA (MPO release) [1]: 43.6% | Inhibitory percentage, MPO assay by ELISA in the supernatant after neutrophils activation with PMA (MPO release) ([1]; listed as curcumin): 44% | Inhibitory percentage, MPO assay by ELISA in the supernatant after neutrophils activation with PMA ([1]; drug concentration 10^-6 M): 0% | Effect on the chemiluminescence response of activated neutrophils (in words) ([2]; 10^-4, 10^-5 or 10^-6 M): dose dependent inhibitory effects | Inhibition percentage on chemiluminescence response of activated neutrophils [2]: 70%

Oc1ccc(C=Cc2cc(O)cc(O)c2)cc1 [resveratrol]
Effect on MPO activity (in words) (equine MPO): direct dose dependent inhibitory effect

COc1cc(CCC(=O)CC(=O)CCc2ccc(O)c(OC)c2)ccc1O [tetrahydrocurcumin]
Inhibitory percentage, MPO assay by ELISA in the supernatant after neutrophils activation with PMA ([1]; drug concentration 10^-4 M): 41% | Inhibitory percentage, MPO assay by ELISA in the supernatant after neutrophils activation with PMA (MPO release) [1]: 18% | Inhibitory percentage, MPO assay by ELISA in the supernatant after neutrophils activation with PMA ([1]; drug concentration 10^-6 M): 17% | Inhibition percentage on chemiluminescence response of activated neutrophils [2]: 12%
